ChEMBL document CHEMBL4400519, “Indazolylketones as new multitarget cannabinoid drugs” (Eur J Med Chem, 2019)
pIC50: −log10 of the molar value. Active and inactive are the calls of the source. The rule behind the calls is not given here.

How the values were obtained:
[1] = target: T1, Cannabinoid receptor (Mus musculus) (UniProt P47746+P47936); assay: Agonist activity at cannabinoid receptor in ICR mouse vas deferens assessed as inhibition of electrically induced contractions at 10^-7 M after 10 mins relative to control; type: protein assay
T1 sequence (P47746 whole entry, looked up): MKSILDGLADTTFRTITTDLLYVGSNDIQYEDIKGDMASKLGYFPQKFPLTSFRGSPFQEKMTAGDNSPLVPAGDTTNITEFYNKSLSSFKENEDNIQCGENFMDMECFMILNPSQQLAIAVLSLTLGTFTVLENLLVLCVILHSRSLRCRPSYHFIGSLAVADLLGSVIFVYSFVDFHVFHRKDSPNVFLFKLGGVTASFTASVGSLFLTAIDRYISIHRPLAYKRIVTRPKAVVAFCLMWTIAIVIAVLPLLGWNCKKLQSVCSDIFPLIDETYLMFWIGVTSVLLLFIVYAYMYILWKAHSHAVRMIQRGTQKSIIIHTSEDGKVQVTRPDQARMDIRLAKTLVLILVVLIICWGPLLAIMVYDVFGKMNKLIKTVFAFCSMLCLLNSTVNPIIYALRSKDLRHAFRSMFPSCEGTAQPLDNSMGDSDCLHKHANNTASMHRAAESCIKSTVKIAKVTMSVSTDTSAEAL
T1 sequence (P47936 whole entry, looked up): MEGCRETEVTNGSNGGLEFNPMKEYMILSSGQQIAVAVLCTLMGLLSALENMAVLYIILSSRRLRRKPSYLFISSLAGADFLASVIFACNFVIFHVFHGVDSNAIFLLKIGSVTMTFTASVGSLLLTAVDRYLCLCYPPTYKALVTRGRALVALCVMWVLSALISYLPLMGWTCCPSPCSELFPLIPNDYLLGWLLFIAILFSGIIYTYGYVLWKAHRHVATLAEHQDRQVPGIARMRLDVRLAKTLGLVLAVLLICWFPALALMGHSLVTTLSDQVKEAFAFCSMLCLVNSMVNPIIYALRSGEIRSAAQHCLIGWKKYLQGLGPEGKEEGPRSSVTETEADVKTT

[2] = target: T1, Cannabinoid receptor (Mus musculus); assay: Agonist activity at cannabinoid receptor in ICR mouse vas deferens assessed as inhibition of electrically induced contractions at 3 x 10^-7 M after 10 mins relative to control; type: protein assay
[3] = target: T1, Cannabinoid receptor (Mus musculus); assay: Agonist activity at cannabinoid receptor in ICR mouse vas deferens assessed as inhibition of electrically induced contractions at 9 x 10^-7 M after 10 mins relative to control; type: protein assay
[4] = target: T1, Cannabinoid receptor (Mus musculus); assay: Agonist activity at cannabinoid receptor in ICR mouse vas deferens assessed as inhibition of electrically induced contractions at 2.7 x 10^-6 M after 10 mins relative to control; type: protein assay
[5] = target: T1, Cannabinoid receptor (Mus musculus); assay: Agonist activity at cannabinoid receptor in ICR mouse vas deferens assessed as inhibition of electrically induced contractions at 8.1 x 10^-6 M after 10 mins relative to control; type: protein assay
[6] = target: T1, Cannabinoid receptor (Mus musculus); assay: Agonist activity at cannabinoid receptor in ICR mouse vas deferens assessed as inhibition of electrically induced contractions at 1.82 x 10^-5 M after 10 mins relative to control; type: protein assay
[7] = target: T1, Cannabinoid receptor (Mus musculus); assay: Agonist activity at cannabinoid receptor in ICR mouse vas deferens assessed as inhibition of electrically induced contractions at 10^-7 M after 10 mins in presence of CB1 antagonist AM251 relative to control; type: protein assay
[8] = target: T1, Cannabinoid receptor (Mus musculus); assay: Agonist activity at cannabinoid receptor in ICR mouse vas deferens assessed as inhibition of electrically induced contractions at 8.1 x 10^-6 M after 10 mins in presence of CB1 antagonist AM251 relative to control; type: protein assay
[9] = target: T1, Cannabinoid receptor (Mus musculus); assay: Agonist activity at cannabinoid receptor in ICR mouse vas deferens assessed as inhibition of electrically induced contractions at 1.82 x 10^-5 M after 10 mins in presence of CB1 antagonist AM251 relative to control; type: protein assay
[10] = target: T1, Cannabinoid receptor (Mus musculus); assay: Agonist activity at cannabinoid receptor in ICR mouse vas deferens assessed as inhibition of electrically induced contractions at 10^-7 M after 10 mins in presence of CB2 antagonist AM630 relative to control; type: protein assay
[11] = target: T1, Cannabinoid receptor (Mus musculus); assay: Agonist activity at cannabinoid receptor in ICR mouse vas deferens assessed as inhibition of electrically induced contractions at 3 x 10^-7 M after 10 mins in presence of CB2 antagonist AM630 relative to control; type: protein assay
[12] = target: T1, Cannabinoid receptor (Mus musculus); assay: Agonist activity at cannabinoid receptor in ICR mouse vas deferens assessed as inhibition of electrically induced contractions at 9 x 10^-7 M after 10 mins in presence of CB2 antagonist AM630 relative to control; type: protein assay
[13] = target: T1, Cannabinoid receptor (Mus musculus); assay: Agonist activity at cannabinoid receptor in ICR mouse vas deferens assessed as inhibition of electrically induced contractions at 2.7 x 10^-6 M after 10 mins in presence of CB2 antagonist AM630 relative to control; type: protein assay
[14] = target: T1, Cannabinoid receptor (Mus musculus); assay: Agonist activity at cannabinoid receptor in ICR mouse vas deferens assessed as inhibition of electrically induced contractions at 8.1 x 10^-6 M after 10 mins in presence of CB2 antagonist AM630 relative to control; type: protein assay
[15] = target: T1, Cannabinoid receptor (Mus musculus); assay: Agonist activity at cannabinoid receptor in ICR mouse vas deferens assessed as inhibition of electrically induced contractions at 1.82 x 10^-5 M after 10 mins in presence of CB2 antagonist AM630 relative to control; type: protein assay
Acetylcholinesterase [16] = target: T2, Acetylcholinesterase (Homo sapiens, UniProt P22303); assay: Inhibition of human erythrocyte AChE using acetylthiocholine as substrate by Ellman's assay
T2 sequence (P22303 whole entry): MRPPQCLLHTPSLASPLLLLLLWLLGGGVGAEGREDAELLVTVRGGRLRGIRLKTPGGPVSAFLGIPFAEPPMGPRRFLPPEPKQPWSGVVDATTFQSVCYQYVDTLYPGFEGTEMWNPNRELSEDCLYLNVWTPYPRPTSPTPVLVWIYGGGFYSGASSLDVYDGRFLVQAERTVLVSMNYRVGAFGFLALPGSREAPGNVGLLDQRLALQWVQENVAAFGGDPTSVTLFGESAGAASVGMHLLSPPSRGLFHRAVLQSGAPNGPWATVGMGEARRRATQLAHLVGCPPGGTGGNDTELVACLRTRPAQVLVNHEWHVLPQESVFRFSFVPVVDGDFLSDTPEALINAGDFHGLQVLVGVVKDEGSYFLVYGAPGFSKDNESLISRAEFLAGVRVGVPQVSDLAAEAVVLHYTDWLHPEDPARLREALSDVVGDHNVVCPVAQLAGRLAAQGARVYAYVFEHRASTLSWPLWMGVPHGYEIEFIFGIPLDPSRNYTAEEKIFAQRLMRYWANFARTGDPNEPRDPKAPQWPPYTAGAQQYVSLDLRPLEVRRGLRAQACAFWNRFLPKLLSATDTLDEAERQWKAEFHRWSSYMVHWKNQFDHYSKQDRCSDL

Cholinesterase = Cholinesterase (Homo sapiens, UniProt P06276); assay: Inhibition of human serum BChE using butyrylthiocholine as substrate by Ellman's assay
Chain of Cholinesterase (P06276 whole entry): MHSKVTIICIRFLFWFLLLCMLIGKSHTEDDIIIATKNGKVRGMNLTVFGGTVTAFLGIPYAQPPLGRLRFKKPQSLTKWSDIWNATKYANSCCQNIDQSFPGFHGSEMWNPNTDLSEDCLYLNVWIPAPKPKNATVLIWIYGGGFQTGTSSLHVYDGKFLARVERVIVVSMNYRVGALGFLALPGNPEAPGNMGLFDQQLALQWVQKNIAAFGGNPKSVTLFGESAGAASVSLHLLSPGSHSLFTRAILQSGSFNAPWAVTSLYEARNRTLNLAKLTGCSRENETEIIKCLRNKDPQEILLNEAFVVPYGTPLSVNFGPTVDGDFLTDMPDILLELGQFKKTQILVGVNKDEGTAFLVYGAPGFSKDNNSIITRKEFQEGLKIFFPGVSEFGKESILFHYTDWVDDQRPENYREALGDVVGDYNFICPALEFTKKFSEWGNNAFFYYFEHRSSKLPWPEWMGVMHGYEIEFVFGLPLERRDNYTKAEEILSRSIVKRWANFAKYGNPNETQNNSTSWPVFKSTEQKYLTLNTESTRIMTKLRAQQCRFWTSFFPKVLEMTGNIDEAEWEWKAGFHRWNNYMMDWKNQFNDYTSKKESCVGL

[17] = target: Beta-secretase 1 (Homo sapiens) (UniProt P56817); assay: Inhibition of human BACE1 at 10 uM incubated for 60 mins using rhodamine-EVNLDAEFK-quencher substrate by FRET assay
Chain of Beta-secretase 1 (Homo sapiens) (P56817 whole entry): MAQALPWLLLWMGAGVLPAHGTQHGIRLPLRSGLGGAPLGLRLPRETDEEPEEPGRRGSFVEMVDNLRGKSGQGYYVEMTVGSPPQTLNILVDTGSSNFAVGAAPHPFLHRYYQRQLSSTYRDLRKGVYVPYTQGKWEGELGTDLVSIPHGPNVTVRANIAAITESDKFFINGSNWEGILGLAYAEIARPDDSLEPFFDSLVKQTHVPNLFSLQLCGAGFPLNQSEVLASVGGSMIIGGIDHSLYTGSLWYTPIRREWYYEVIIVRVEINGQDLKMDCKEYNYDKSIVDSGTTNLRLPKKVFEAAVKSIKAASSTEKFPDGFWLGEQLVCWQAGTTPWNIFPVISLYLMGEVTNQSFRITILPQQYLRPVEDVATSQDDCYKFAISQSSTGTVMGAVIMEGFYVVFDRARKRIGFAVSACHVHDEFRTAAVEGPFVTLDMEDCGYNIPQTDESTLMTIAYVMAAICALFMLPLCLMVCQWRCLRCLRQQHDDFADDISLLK

[18] = Antioxidant activity assessed as trolox equivalent of APPH-induced radical scavenging activity by ORAC-FL assay; type: functional
Acetylcholinesterase [19] = target: T2, Acetylcholinesterase; assay: Inhibition of human erythrocyte AChE at 10 uM using acetylthiocholine as substrate by Ellman's assay
[20] = target: T1, Cannabinoid receptor (Mus musculus); assay: Agonist activity at cannabinoid receptor in ICR mouse vas deferens assessed as inhibition of electrically induced contractions at 3 x 10^-7 M after 10 mins in presence of CB1 antagonist AM251 relative to control; type: protein assay
[21] = target: T1, Cannabinoid receptor (Mus musculus); assay: Agonist activity at cannabinoid receptor in ICR mouse vas deferens assessed as inhibition of electrically induced contractions at 9 x 10^-7 M after 10 mins in presence of CB1 antagonist AM251 relative to control; type: protein assay
[22] = target: T1, Cannabinoid receptor (Mus musculus); assay: Agonist activity at cannabinoid receptor in ICR mouse vas deferens assessed as inhibition of electrically induced contractions at 2.7 x 10^-6 M after 10 mins in presence of CB1 antagonist AM251 relative to control; type: protein assay

SMILES	inhibition [1] [%]	inhibition [2] [%]	inhibition [3] [%]	inhibition [4] [%]	inhibition [5] [%]	inhibition [6] [%]	inhibition [7] [%]	inhibition [8] [%]	inhibition [9] [%]	inhibition [10] [%]	inhibition [11] [%]	inhibition [12] [%]	inhibition [13] [%]	inhibition [14] [%]	inhibition [15] [%]	pIC50 (Acetylcholinesterase [16])	pIC50 (Cholinesterase)	inhibition [20] [%]	inhibition [21] [%]	inhibition [22] [%]	also measured
O=C(c1cccc2ccccc12)n1nc(OCCN2CCCCC2)c2ccccc21	-0.7	1.4	8.6	28.6	69.2	93.7	-7.7	27.8	73.3	-8.6	-7.9	-2.6	15.7	73.6	92	< 5.00	9.59	–	–	–	inhibition [17]: 11%; Activity [18]: inactive; inhibition (Acetylcholinesterase [19]): 37%
COc1cc(C(=O)n2nc(OCCN3CCCC3)c3ccccc32)cc(OC)c1OC	3.2	7	14.6	26.9	49.7	78	-0.7	42.4	74	-1	0.8	4.1	10.9	40	69.5	4.94	< 5.00	6	5.6	15	inhibition [17]: 6%; Activity [18]: inactive
O=C(c1cccc2ccccc12)n1nc(OCCCN2CCCCC2)c2ccccc21	1	3	7.9	16	31.5	55.9	-6.4	2.7	18.4	-8.2	-5.4	0.1	14.2	41	56.7	< 5.00	10.15	-5	-3.7	-2.4	inhibition [17]: 42%; Activity [18]: inactive; inhibition (Acetylcholinesterase [19]): 43%
COc1ccc(CC(=O)n2nc(OCCN3CCCC3)c3ccccc32)cc1	2.4	7.9	13.7	23.4	50.3	76.9	-1.7	44.3	78.6	0.1	3.3	6.4	14	47.9	78.6	< 5.00	5.05	-0.9	2.4	12.2	inhibition [17]: 17%; Activity [18]: inactive
O=C(c1ccccc1OCc1ccccc1)n1nc(OCCN2CCCC2)c2ccccc21	1.2	3.7	7.7	10.4	32.5	68.1	-1.9	38.8	71.2	-4	-1.6	2.7	10.3	47.2	76.7	< 5.00	6.41	-0.5	1.3	5.9	inhibition [17]: 32%; Activity [18]: inactive
O=C(c1cccc(Cl)c1Cl)n1nc(OCCN2CCCCC2)c2ccccc21	1.3	3.8	15.6	29.4	80.5	87.2	-1.8	23.5	43.4	-1.2	-1.3	2.4	8.6	60.2	78.2	4.98	6.22	-0.9	1	3.1	inhibition [17]: 18.1%; Activity [18]: inactive
O=C(c1ccccc1Cl)n1nc(OCCCN2CCCCC2)c2ccccc21	-2.2	2.8	8.9	13	42.8	87.3	-1.7	51.5	88.2	-7.9	-7	6.2	9.3	34.3	79.8	5.01	7.15	-0.4	4.7	10.7	inhibition [17]: 12%; Activity [18]: 0.28 equiv
O=C(c1c(F)ccc(F)c1F)n1nc(OCCN2CCCCC2)c2ccccc21	4.8	9.2	20.8	40.6	60.9	73.2	-5.3	23.6	37.1	-3.3	-1.7	4.4	12.8	32.3	49.1	5.03	5.03	-3.5	6.7	10.4	inhibition [17]: 14.3%; Activity [18]: inactive
O=C(c1cccc2ccccc12)n1nc(OCCCN2CCCC2)c2ccccc21	-2	0.5	3.2	11.3	56.1	87.4	-6.7	57.9	88.4	-2.7	-0.9	4	15.2	68.7	89.5	< 5.00	9.82	-8.6	-7.2	5.7	inhibition [17]: 20%; Activity [18]: inactive; inhibition (Acetylcholinesterase [19]): 35%
O=C(c1cccc(F)c1F)n1nc(OCCN2CCCC2)c2ccccc21	0.8	3.6	11	24.1	37.5	49.4	-1.6	23.3	29.9	-3.8	-2.8	3.7	13.2	21.2	30.1	4.96	4.96	-1.2	4.9	12.5	inhibition [17]: 14%; Activity [18]: inactive
Cc1c(C(=O)NN2CCCCC2)nn(-c2ccc(Cl)cc2Cl)c1-c1ccc(I)cc1	–	–	–	–	–	–	-7.3	72.7	84.6	–	–	–	–	–	–	–	–	-2	12.1	38.4	–
Cc1c(C(=O)c2cccc3ccccc23)c2cccc3c2n1[C@H](CN1CCOCC1)CO3	17.8	32.7	54.5	61.8	71.4	81.3	-3.9	31.9	52	-1.1	2	22	33.2	54.8	68.9	–	–	-2.7	2	11.5	–
